Reference: US12240811B2, “N-heterocyclic five-membered ring-containing capsid protein assembly inhibitor, pharmaceutical composition and uses thereof” (CHIA TAI TIANQING PHARMACEUTICAL GROUP CO., LTD., priority 2019, dated 2025)

How the values were obtained:
[1] = system: HBV DNA in HepG2.2.15 cells; experiment: In vitro cell HBV DNA inhibitory activity in HepG2.2.15 cells; type: cell-based; details: Hepatitis B virus, 144 h, 6 days treatment, intracellular capsid HBV DNA by qPCR, read-out: EC50, anti-HBV activity in HepG2.2.15 cells
Protocol: A bottle of HepG2.2.15 (Wuhan Institute of Virology) or HepAD38 cells in good exponential growth state was taken, washed once by adding 5 mL PBS, and then thereto was added 3 mL trypsin. After digesting at room temperature for 5 min, 2 mL trypsin was discarded, and then the sample was placed in a cell culture incubator and digested for 10 min. The cells were taken out and observed under a microscope (whether the cells were individually round and there was no adhesion between the cells). 10 mL complete medium was added to terminate the digestion. After pipetting into a single cell suspension, 10 μL of the cell suspension was taken out for cell counting with a cell counter, and then diluted with a complete medium and adjusted to a cell density of 1*10^5 cells/mL. […]
Compounds dissolved in DMSO were subjected to two-fold gradient dilution (10 concentrations in total) with complete medium. […] After lysing at room temperature for 10 min, DNA was extracted, and HBV DNA in the intracellular viral capsid was measured by real-time fluorescence quantitative PCR. The inhibition rate was calculated based on the Ct value, and the EC50 value was calculated by the four-parameter method.

[2] = Stability of liver microsomes in vitro, rat; type: in vitro ADME
Protocol: (§1) 300 μL of a final incubation system contains 30 μL of liver microsomes (protein concentration: 0.15 mg/mL, Corning), 30 μL NADPH+MgCl2, 3 μL substrate (formulated with acetonitrile), and 237 μL PBS buffer. Duplicate incubation systems of 0.3 mL each were formulated for each species. A total volume of 270 μL of a uniformly mixed solution of the substrate and the enzyme was formulated in each tube, the solution and NADPH were pre-incubated at 37° C. for 5 minutes, respectively. Then 30 μL of the mixed solution of NADPH+MgCl2 was added for reaction. 50 μL of the reaction solution was taken out at 0, 10, 30, and 60 mins, and the reaction was terminated with 300 μL of ice acetonitrile containing an internal standard.
(§2) Sample pre-treatment: To 50 μL of the incubated sample was added 300 μL of ice acetonitrile containing diazepam as an internal standard and then precipitated. After vortexing for 5 minutes, the sample was centrifugated (12000 rpm, 4° C.) for 10 minutes. 75 μL of the supernatant was pipetted into a 96-well plate, and then diluted with 75 μL ultrapure water and mixed uniformly. 0.5 μL of the resulting solution was injected and analyzed by LC-MS/MS.

[3] = Stability of liver microsomes in vitro, human; type: in vitro ADME
Protocol: as §1, §2

[4] = Stability of liver microsomes in vitro, mouse; type: in vitro ADME
Protocol: as §1, §2

HBV DNA in serum = experiment: pAAV/HBV mouse model; type: in vivo, C57BL/6 mice; details: 3 mpk intragastric once daily
Protocol: 6-8 week old male C57BL/6 mice (Shanghai Lingchang Biotechnology Co., Ltd.) were used, and each mouse was injected with purified recombinant plasmid pAAV/HBV1.2 ([…]) dissolved in PBS equivalent to a volume of about 10% of its body weight through the tail vein within 3-8 s. Blood was collected from the orbits of the mice at 3 days after the plasmid injection to detect serum HBV DNA. The model mice having uniform serum DNA were selected and divided into: a model control group, a vehicle control group, and a test substance group. Mice in each group were continuously administered intragastrically once daily for 10 days at a dose of 3 mg/kg. The mouse serum was taken on day 0, 4, 7, and 10 after the administration, and the mice were sacrificed on day 10 to take liver tissue samples. The HBV DNA copy numbers in serum and liver of the mice were detected by fluorescent quantitative PCR method.

In the case of `Cc1[nH]c(C(=O)C(=O)N[C@H](C)C(F)(F)F)c(C)c1C(=O)Nc1ccc(F)c(C#N)c1` [Example 2, (R)—N-(3-cyano-4-fluorophenyl)-2,4-dimethyl-5-(2-oxo-2-((1,1,1-trifluoroprop-2-yl)amino)acetyl)-1H-pyrrole-3-carboxamide], the EC50 [1] is reported as 10.7 nM, the “Remaining (%) of rat liver microsomes at 60 min” value [2] is reported as 99% and the “Remaining (%) of human liver microsomes at 60 min” value [3] is reported as 100%. The “Remaining (%) of mouse liver microsomes at 60 min” value [4] was 100%, the “Reduction levels (log10) of HBV DNA in serum, Day 4” value (HBV DNA in serum; Day 4) was 2.92 log10 and the “Reduction levels (log10) of HBV DNA in serum, Day 7” value (HBV DNA in serum; Day 7) was 4.09 log10. For the same molecule, the “Reduction levels (log10) of HBV DNA in serum, Day 10” value (HBV DNA in serum; Day 10) was 2.42 log10.
